From PubChem BioAssay (NCI)
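The compound was tested at five concentrations on cells cultured in 96-well plates, with a 48-hour exposure period. GI50: concentration for 50% inhibition of growth. TGI: concentration producing complete growth inhibition.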

Columns and labels:
Assay in all cases: growth of human tumour cells (NCI), 48 h
MDA-MB-231 breast = system: MDA-MB-231 breast
PC-3 prostate = system: PC-3 prostate
HS 578T breast = system: HS 578T breast
KM12 colon = system: KM12 colon
A498 renal = system: A498 renal
MOLT-4 leukemia = system: MOLT-4 leukemia
UACC-257 melanoma = system: UACC-257 melanoma
NCI-H522 lung = system: NCI-H522 lung
HCT-116 colon = system: HCT-116 colon
HCC-2998 colon = system: HCC-2998 colon
CAKI-1 renal = system: CAKI-1 renal
786-0 renal = system: 786-0 renal
MALME-3M melanoma = system: MALME-3M melanoma
M14 melanoma = system: M14 melanoma
A549 NSCLC = system: A549 NSCLC
SK-MEL-28 melanoma = system: SK-MEL-28 melanoma
HT29 colon = system: HT29 colon
HL-60(TB) leukemia = system: HL-60(TB) leukemia
UACC-62 melanoma = system: UACC-62 melanoma
ACHN renal = system: ACHN renal
SK-OV-3 ovarian = system: SK-OV-3 ovarian
IGROV1 ovarian = system: IGROV1 ovarian
TK-10 renal = system: TK-10 renal
SNB-19 CNS = system: SNB-19 CNS
COLO 205 colon = system: COLO 205 colon
HOP-92 NSCLC = system: HOP-92 NSCLC
EKVX NSCLC = system: EKVX NSCLC
BT-549 breast = system: BT-549 breast
RXF 393 renal = system: RXF 393 renal
MDA-MB-435 = system: MDA-MB-435
U251 CNS = system: U251 CNS
OVCAR-8 ovarian = system: OVCAR-8 ovarian
HCT-15 colon = system: HCT-15 colon
SF-268 CNS = system: SF-268 CNS
OVCAR-3 ovarian = system: OVCAR-3 ovarian
SR leukemia = system: SR leukemia
T-47D breast = system: T-47D breast
DU-145 prostate = system: DU-145 prostate
NCI-H460 lung = system: NCI-H460 lung
SK-MEL-5 melanoma = system: SK-MEL-5 melanoma
UO-31 renal = system: UO-31 renal
NCI-H23 lung = system: NCI-H23 lung
HOP-62 NSCLC = system: HOP-62 NSCLC
OVCAR-4 ovarian = system: OVCAR-4 ovarian
SW-620 colon = system: SW-620 colon
SK-MEL-2 melanoma = system: SK-MEL-2 melanoma
RPMI-8226 leukemia = system: RPMI-8226 leukemia
SF-539 CNS = system: SF-539 CNS
LOX IMVI melanoma = system: LOX IMVI melanoma
SN12C renal = system: SN12C renal
NCI-H226 lung = system: NCI-H226 lung
OVCAR-5 ovarian = system: OVCAR-5 ovarian
K-562 leukemia = system: K-562 leukemia
NCI/ADR-RES ovarian = system: NCI/ADR-RES ovarian
CCRF-CEM leukemia = system: CCRF-CEM leukemia
SNB-75 CNS = system: SNB-75 CNS
SF-295 CNS = system: SF-295 CNS
MCF7 breast = system: MCF7 breast

SMILES: Nc1nc2ccc(-c3nc4ccc5[nH]ncc5c4c4c3CCC4)cc2s1
- GI50 (MDA-MB-231 breast): 511 nM
- TGI (MDA-MB-231 breast): 11.5 µM
- GI50 (PC-3 prostate): 308 nM
- TGI (PC-3 prostate): 14 µM
- GI50 (HS 578T breast): 189 nM
- TGI (HS 578T breast): 3.13 µM
- GI50 (KM12 colon): 205 nM
- TGI (KM12 colon): 9.01 µM
- GI50 (A498 renal): 108 nM
- TGI (A498 renal): 624 nM
- GI50 (MOLT-4 leukemia): 294 nM
- TGI (MOLT-4 leukemia): 10.7 µM
- GI50 (UACC-257 melanoma): 731 nM
- TGI (UACC-257 melanoma): 5.58 µM
- GI50 (NCI-H522 lung): 253 nM
- TGI (NCI-H522 lung): 2520 nM
- GI50 (HCT-116 colon): 244 nM
- TGI (HCT-116 colon): 6.68 µM
- GI50 (HCC-2998 colon): 1470 nM
- TGI (HCC-2998 colon): 9.11 µM
- GI50 (CAKI-1 renal): 315 nM
- TGI (CAKI-1 renal): 5.51 µM
- GI50 (786-0 renal): 343 nM
- TGI (786-0 renal): 7.79 µM
- GI50 (MALME-3M melanoma): 202 nM
- TGI (MALME-3M melanoma): 1630 nM
- GI50 (M14 melanoma): 172 nM
- TGI (M14 melanoma): 8.86 µM
- GI50 (A549 NSCLC): 440 nM
- TGI (A549 NSCLC): 23.9 µM
- GI50 (SK-MEL-28 melanoma): 638 nM
- TGI (SK-MEL-28 melanoma): 7.89 µM
- GI50 (HT29 colon): 191 nM
- TGI (HT29 colon): 19.8 µM
- GI50 (HL-60(TB) leukemia): 168 nM
- TGI (HL-60(TB) leukemia): 7.93 µM
- GI50 (UACC-62 melanoma): 149 nM
- TGI (UACC-62 melanoma): 630 nM
- GI50 (ACHN renal): 321 nM
- TGI (ACHN renal): 6.58 µM
- GI50 (SK-OV-3 ovarian): 473 nM
- TGI (SK-OV-3 ovarian): 2520 nM
- GI50 (IGROV1 ovarian): 288 nM
- TGI (IGROV1 ovarian): 8.66 µM
- GI50 (TK-10 renal): 1110 nM
- TGI (TK-10 renal): 9.73 µM
- GI50 (SNB-19 CNS): 318 nM
- TGI (SNB-19 CNS): 11.4 µM
- GI50 (COLO 205 colon): 306 nM
- TGI (COLO 205 colon): 7.14 µM
- GI50 (HOP-92 NSCLC): 660 nM
- TGI (HOP-92 NSCLC): 6.87 µM
- GI50 (EKVX NSCLC): 916 nM
- TGI (EKVX NSCLC): 8.05 µM
- GI50 (BT-549 breast): 365 nM
- TGI (BT-549 breast): 10.2 µM
- GI50 (RXF 393 renal): 238 nM
- TGI (RXF 393 renal): 1770 nM
- GI50 (MDA-MB-435): 67.3 nM
- TGI (MDA-MB-435): 259 nM
- GI50 (U251 CNS): 241 nM
- TGI (U251 CNS): 12.7 µM
- GI50 (OVCAR-8 ovarian): 978 nM
- TGI (OVCAR-8 ovarian): 20.7 µM
- GI50 (HCT-15 colon): 193 nM
- TGI (HCT-15 colon): 7.66 µM
- GI50 (SF-268 CNS): 478 nM
- TGI (SF-268 CNS): 20.2 µM
- GI50 (OVCAR-3 ovarian): 187 nM
- TGI (OVCAR-3 ovarian): 10.8 µM
- GI50 (SR leukemia): 155 nM
- TGI (SR leukemia): 22.4 µM
- GI50 (T-47D breast): 408 nM
- TGI (T-47D breast): 15.3 µM
- GI50 (DU-145 prostate): 787 nM
- TGI (DU-145 prostate): 5.62 µM
- GI50 (NCI-H460 lung): 208 nM
- TGI (NCI-H460 lung): 5.12 µM
- GI50 (SK-MEL-5 melanoma): 238 nM
- TGI (SK-MEL-5 melanoma): 1680 nM
- GI50 (UO-31 renal): 741 nM
- TGI (UO-31 renal): 3.58 µM
- GI50 (NCI-H23 lung): 546 nM
- TGI (NCI-H23 lung): 8.25 µM
- GI50 (HOP-62 NSCLC): 415 nM
- TGI (HOP-62 NSCLC): 13.6 µM
- GI50 (OVCAR-4 ovarian): 835 nM
- TGI (OVCAR-4 ovarian): 6.25 µM
- GI50 (SW-620 colon): 186 nM
- TGI (SW-620 colon): 7.05 µM
- GI50 (SK-MEL-2 melanoma): 567 nM
- TGI (SK-MEL-2 melanoma): 8.08 µM
- GI50 (RPMI-8226 leukemia): 472 nM
- TGI (RPMI-8226 leukemia): 10.5 µM
- GI50 (SF-539 CNS): 190 nM
- TGI (SF-539 CNS): 4.15 µM
- GI50 (LOX IMVI melanoma): 281 nM
- TGI (LOX IMVI melanoma): 8.9 µM
- GI50 (SN12C renal): 383 nM
- TGI (SN12C renal): 8.79 µM
- GI50 (NCI-H226 lung): 1100 nM
- TGI (NCI-H226 lung): 10.1 µM
- GI50 (OVCAR-5 ovarian): 2640 nM
- TGI (OVCAR-5 ovarian): 11.9 µM
- GI50 (K-562 leukemia): 115 nM
- TGI (K-562 leukemia): 33.2 µM
- GI50 (NCI/ADR-RES ovarian): 302 nM
- TGI (NCI/ADR-RES ovarian): 18.8 µM
- GI50 (CCRF-CEM leukemia): 225 nM
- TGI (CCRF-CEM leukemia): 50 µM
- GI50 (SNB-75 CNS): 115 nM
- TGI (SNB-75 CNS): 550 nM
- GI50 (SF-295 CNS): 234 nM
- TGI (SF-295 CNS): 7.95 µM
- GI50 (MCF7 breast): 165 nM
- TGI (MCF7 breast): 7.36 µM
